From PMC11904993, “Humanized Candida and NanoBiT Assays Expedite Discovery of Bdf1 Bromodomain Inhibitors With Antifungal Potential” (Advanced Science, 2025)
Values joined by “and” are separate entries in the source; they are usually repeats but may differ in a detail not shown here. Equal entries are not always repeated. Where two headings read alike, the source gives them in different places.

Assays:
C. albicans = experiment: Growth of reference and clinical strains in liquid media; type: cell-based; details: for EC50: Candida albicans
Method: (§1) Strains were presented in Table S8 (Supporting Information). Cells from a single colony were diluted in 0.85% NaCl before being counted using a Neubauer chamber. They were diluted to a final concentration of 6500 cells mL^−1 per well for all clinical strains of C. albicans and C. glabrata; 65 000 cells mL^−1 per well for C. auris; 13 500 cells mL^−1 per well for C. parapsilosis; 3375 cells mL^−1 per well for C. krusei and 1687.5 cells mL^−1 per well for C. tropicalis, in a sterile 96‐well plate. Cells were then grown in SC medium with or without chemical compounds at 30 °C with regular shaking. The significance of growth defects was assessed using Holm‐Sidak method by GraphPad Prism 10.

C. glabrata = experiment: as above; type: cell-based; details: for Growth (%): C. glabrata; for EC50: Nakaseomyces glabratus
Method: as §1

[1] = tested on: C. albicans expressing WT Bdf1; experiment: Galleria fungal infection model, WT strain; type: in vivo, Galleria mellonella; parameters: key to survival event of one larva (1 = death 0 = no death): 1 = death; 0 = no death
Method: Galleria mellonella larvae were purchased from Decathlon (La Tronche, France). They were selected in the late larval stages weighing between 300 and 400 mg. Groups of 10 larvae were injected into the right or left last pro‐leg with 10 µl of either PBS, C. albicans suspensions or antifungal drug using an insulin syringe (BDUltra‐Fine 0.3 ml). C. albicans suspensions of the WT and humanized Bdf1 strains were adjusted to 10^6 cells larva^−1. Antifungal drugs (anidulafungin 5 mg kg^−1 or I‐BET726 66 or 44 mg kg^−1) were injected once 30 min before fungal infection. An infected control group received the C. albicans inoculum and the solvent of the drug. A non‐infected control group received only PBS. After inoculation, larvae were placed in Petri dishes and incubated in the dark at 37 °C. The larvae were monitored for 5 days, and survival outcome was determined. For experiments performed at the lower (44 mg kg^−1) dose of IBET‐726, the difference in protection against infection with humanized versus WT C. albicans strains was more evident using the survival data at 40 h rather than at 100 h post‐infection. Larvae were considered dead when no response was observed following touch. All experiments were performed at least 3 times independently. The significance of survival was assessed by a Log‐rank (Mantel‐Cox) test in GraphPad Prism 10.

[2] = tested on: humanized C. albicans strains (both Bdf1 BDs replaced by Brd4 BDs); experiment: Growth in liquid media, humanized C. albicans; type: cell-based; details: Candida albicans, read-out: EC50 (μM), C. albicans (hum)
Method: as §1

C. krusei = experiment: Growth in liquid media; type: cell-based; details: Fig 5C
Method: as §1

C. parapsilosis = experiment: Growth in liquid media; type: cell-based; details: Fig 5C; for Growth (%): C. parapsilosis
Method: as §1

C. auris = experiment: Growth in liquid media; type: cell-based; details: Fig 5C; for Growth (%): C. auris
Method: as §1

C. tropicalis = experiment: Growth in liquid media; type: cell-based; details: Fig 5C; for Growth (%): C. tropicalis
Method: as §1

SMILES: CC(=O)N1c2ccc(-c3ccc(C(=O)O)cc3)cc2C(Nc2ccc(Cl)cc2)CC1C (stereo not drawn) [I-BET726]
- Growth (%) (C. albicans; C. albicans, 1.5625 µM, Fig 5C): 81% and 83% and 74%
- Growth (%) (C. albicans; C. albicans, 3.125 µM, Fig 5C): 66% and 63% and 57%
- Growth (%) (C. albicans; C. albicans, 25 µM, Fig 5C): 17% and 23% and 20%
- Growth (%) (C. albicans; C. albicans, 25 µM, Fig 5E): 17% and 23% and 20%
- EC50 (C. albicans; ATCC90028, Table S5, C. albicans ATCC90028, WT, read-out: EC50 growth inhibition): 4.25 ± 0.47 µM
- EC50 (C. albicans; Fig 5C, read-out: EC50 (μM), C. albicans): 4.3 ± 0.5 µM
- EC50 (C. albicans; Table S5, C. albicans CagR, echinocandin-resistant, not characterized, read-out: EC50 growth inhibition): 4.14 ± 0.48 µM
- EC50 (C. albicans; all eight azole- and echinocandin-resistant C. albicans clinical isolates, read-out: EC50 growth inhibition): 5 to 10 µM
- EC50 (C. albicans; read-out: EC50 growth inhibition, Table S5, C. albicans AF1, echinocandin-resistant, Fks1-HS1 (S645P)): 7.13 ± 1.48 µM
- EC50 (C. albicans; read-out: EC50 growth inhibition, Table S5, C. albicans AF2, echinocandin-resistant, Fks1-HS1 (S645P)): 4.59 ± 0.95 µM
- EC50 (C. albicans; read-out: EC50 growth inhibition, Table S5, C. albicans AF3, echinocandin-resistant, Fks1-HS1 (S645P)): 6.83 ± 0.26 µM
- EC50 (C. albicans; read-out: EC50 growth inhibition, Table S5, C. albicans CAAL74, fluconazole-resistant, Erg11 (Y132F, E266D, G448V, V488I)): 5.87 ± 1.03 µM
- EC50 (C. albicans; read-out: EC50 growth inhibition, Table S5, C. albicans DSY292, azole-resistant, Erg11 (Y132H, G464S, R467K)): 3.07 ± 0.26 µM
- EC50 (C. albicans; read-out: EC50 growth inhibition, Table S5, C. albicans DSY296, azole-resistant, Erg11 (G129A, G464S, G450E), Tac1 (N977D)): 7.36 ± 0.76 µM
- EC50 (C. albicans; read-out: EC50 growth inhibition, Table S5, C. albicans DSY2323, azole-resistant, Erg11 (S405F), Tac1 (G980E)): 11.5 ± 1.7 µM
- Growth (%) (C. albicans; strain AF1, 25 µM, Fig 5E): 34% and 31% and 28%
- Growth (%) (C. albicans; strain AF2, 25 µM, Fig 5E): 26% and 28% and 29%
- Growth (%) (C. albicans; strain AF3, 25 µM, Fig 5E): 26% and 25% and 28%
- Growth (%) (C. albicans; strain CAAL74, 3.13 µM, Fig 5D): 67% and 74% and 60%
- Growth (%) (C. albicans; strain CagR, 25 µM, Fig 5E): 18% and 12%
- Growth (%) (C. albicans; strain DSY292, 0.78 µM, Fig 5D): 84% and 81% and 86%
- Growth (%) (C. albicans; strain DSY292, 3.13 µM, Fig 5D): 55% and 51%
- Growth (%) (C. albicans; strain DSY296, 0.78 µM, Fig 5D): 97% and 88% and 92%
- Growth (%) (C. albicans; strain DSY296, 3.13 µM, Fig 5D): 71% and 66% and 72%
- Growth (%) (C. albicans; strain DSY2323, 3.13 µM, Fig 5D): 85% and 88% and 76%
- Growth (%) (C. glabrata; 1.5625 µM, Fig 5C): 91% and 84% and 88%
- Growth (%) (C. glabrata; 3.125 µM, Fig 5C): 88% and 77% and 93%
- Growth (%) (C. glabrata; 25 µM, Fig 5C): 62% and 60% and 75%
- EC50 (C. glabrata; read-out: EC50 growth inhibition, Table S5, C. glabrata DSY565, azole-resistant, Pdr1 (L280F)): 1.14 ± 0.62 µM
- EC50 (C. glabrata; read-out: EC50 growth inhibition, Table S5, C. glabrata HAB1, azole-resistant, Pdr1 (T370I)): 1.66 ± 0.56 µM
- EC50 (C. glabrata; Fig 5C, read-out: EC50 (μM), C. glabrata): 12 ± 5.6 µM
- EC50 (C. glabrata; Table S5, C. glabrata ATCC2001, WT, read-out: EC50 growth inhibition): 1.52 ± 0.44 µM
- protection against infection ([1]; 44 mg kg^−1): not significant
- survival of infected larvae ([1]; 66 mg kg^−1, injected once 30 min before infection): ≈ 100 h
- survival event of one larva (1 = death 0 = no death) ([1]; Figure 6B, Time 10 hours): 1
- survival event of one larva (1 = death 0 = no death) ([1]; Figure 6B, Time 35 hours): 1
- survival event of one larva (1 = death 0 = no death) ([1]; Figure 6B, Time 50 hours): 1
- survival event of one larva (1 = death 0 = no death) ([1]; Figure 6B, Time 73 hours): 1
- survival event of one larva (1 = death 0 = no death) ([1]; Figure 6D, Time 17 hours): 1
- survival event of one larva (1 = death 0 = no death) ([1]; Figure 6D, Time 23 hours): 1
- survival event of one larva (1 = death 0 = no death) ([1]; Figure 6D, Time 41 hours): 1 and 0
- EC50 [2]: 0.035 ± 0.003 µM
- Growth (%) (C. krusei; 1.5625 µM): 97% and 93%
- Growth (%) (C. krusei; 3.125 µM): 102% and 92% and 91%
- Growth (%) (C. krusei; 25 µM): 103% and 86% and 91%
- Growth (%) (C. parapsilosis; 1.5625 µM): 87% and 91% and 88%
- Growth (%) (C. parapsilosis; 3.125 µM): 79% and 80% and 78%
- Growth (%) (C. parapsilosis; 25 µM): 58% and 59% and 57%
- EC50 (C. parapsilosis; Lodderomyces parapsilosis): ~30 µM
- Growth (%) (C. auris; 1.5625 µM): 91% and 92% and 90%
- Growth (%) (C. auris; 3.125 µM): 85% and 86% and 87%
- Growth (%) (C. auris; 25 µM): 73% and 79%
- EC50 (C. auris; Candidozyma auris): > 50 µM
- Growth (%) (C. tropicalis; 1.5625 µM): 85% and 87% and 84%
- Growth (%) (C. tropicalis; 3.125 µM): 76% and 75%
- Growth (%) (C. tropicalis; 25 µM): 31% and 40% and 34%
- EC50 (C. tropicalis; Candida tropicalis): 8.8 ± 1.4 µM
